The target in the test is ATR kinase (full-length ATR) (Homo sapiens (Human), UniProt Q13535). Description: ATR inhibition assay (radioactive-phosphate incorporation). The format is biochemical. In short, it runs like this: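 Radiometric 33P incorporation by 5 nM full-length ATR into 800 μM target peptide with 10 μM [γ-33P]ATP, in 50 mM Tris/HCl pH 7.5, 10 mM MgCl2, 1 mM DTT, 7% DMSO, 25° C. Compound pre-incubated 10 minutes; reaction stopped after 24 hours, captured on phosphocellulose. Ki(app) from non-linear regression of initial rates.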
ATR kinase (full-length ATR), sequence (Q13535 whole entry): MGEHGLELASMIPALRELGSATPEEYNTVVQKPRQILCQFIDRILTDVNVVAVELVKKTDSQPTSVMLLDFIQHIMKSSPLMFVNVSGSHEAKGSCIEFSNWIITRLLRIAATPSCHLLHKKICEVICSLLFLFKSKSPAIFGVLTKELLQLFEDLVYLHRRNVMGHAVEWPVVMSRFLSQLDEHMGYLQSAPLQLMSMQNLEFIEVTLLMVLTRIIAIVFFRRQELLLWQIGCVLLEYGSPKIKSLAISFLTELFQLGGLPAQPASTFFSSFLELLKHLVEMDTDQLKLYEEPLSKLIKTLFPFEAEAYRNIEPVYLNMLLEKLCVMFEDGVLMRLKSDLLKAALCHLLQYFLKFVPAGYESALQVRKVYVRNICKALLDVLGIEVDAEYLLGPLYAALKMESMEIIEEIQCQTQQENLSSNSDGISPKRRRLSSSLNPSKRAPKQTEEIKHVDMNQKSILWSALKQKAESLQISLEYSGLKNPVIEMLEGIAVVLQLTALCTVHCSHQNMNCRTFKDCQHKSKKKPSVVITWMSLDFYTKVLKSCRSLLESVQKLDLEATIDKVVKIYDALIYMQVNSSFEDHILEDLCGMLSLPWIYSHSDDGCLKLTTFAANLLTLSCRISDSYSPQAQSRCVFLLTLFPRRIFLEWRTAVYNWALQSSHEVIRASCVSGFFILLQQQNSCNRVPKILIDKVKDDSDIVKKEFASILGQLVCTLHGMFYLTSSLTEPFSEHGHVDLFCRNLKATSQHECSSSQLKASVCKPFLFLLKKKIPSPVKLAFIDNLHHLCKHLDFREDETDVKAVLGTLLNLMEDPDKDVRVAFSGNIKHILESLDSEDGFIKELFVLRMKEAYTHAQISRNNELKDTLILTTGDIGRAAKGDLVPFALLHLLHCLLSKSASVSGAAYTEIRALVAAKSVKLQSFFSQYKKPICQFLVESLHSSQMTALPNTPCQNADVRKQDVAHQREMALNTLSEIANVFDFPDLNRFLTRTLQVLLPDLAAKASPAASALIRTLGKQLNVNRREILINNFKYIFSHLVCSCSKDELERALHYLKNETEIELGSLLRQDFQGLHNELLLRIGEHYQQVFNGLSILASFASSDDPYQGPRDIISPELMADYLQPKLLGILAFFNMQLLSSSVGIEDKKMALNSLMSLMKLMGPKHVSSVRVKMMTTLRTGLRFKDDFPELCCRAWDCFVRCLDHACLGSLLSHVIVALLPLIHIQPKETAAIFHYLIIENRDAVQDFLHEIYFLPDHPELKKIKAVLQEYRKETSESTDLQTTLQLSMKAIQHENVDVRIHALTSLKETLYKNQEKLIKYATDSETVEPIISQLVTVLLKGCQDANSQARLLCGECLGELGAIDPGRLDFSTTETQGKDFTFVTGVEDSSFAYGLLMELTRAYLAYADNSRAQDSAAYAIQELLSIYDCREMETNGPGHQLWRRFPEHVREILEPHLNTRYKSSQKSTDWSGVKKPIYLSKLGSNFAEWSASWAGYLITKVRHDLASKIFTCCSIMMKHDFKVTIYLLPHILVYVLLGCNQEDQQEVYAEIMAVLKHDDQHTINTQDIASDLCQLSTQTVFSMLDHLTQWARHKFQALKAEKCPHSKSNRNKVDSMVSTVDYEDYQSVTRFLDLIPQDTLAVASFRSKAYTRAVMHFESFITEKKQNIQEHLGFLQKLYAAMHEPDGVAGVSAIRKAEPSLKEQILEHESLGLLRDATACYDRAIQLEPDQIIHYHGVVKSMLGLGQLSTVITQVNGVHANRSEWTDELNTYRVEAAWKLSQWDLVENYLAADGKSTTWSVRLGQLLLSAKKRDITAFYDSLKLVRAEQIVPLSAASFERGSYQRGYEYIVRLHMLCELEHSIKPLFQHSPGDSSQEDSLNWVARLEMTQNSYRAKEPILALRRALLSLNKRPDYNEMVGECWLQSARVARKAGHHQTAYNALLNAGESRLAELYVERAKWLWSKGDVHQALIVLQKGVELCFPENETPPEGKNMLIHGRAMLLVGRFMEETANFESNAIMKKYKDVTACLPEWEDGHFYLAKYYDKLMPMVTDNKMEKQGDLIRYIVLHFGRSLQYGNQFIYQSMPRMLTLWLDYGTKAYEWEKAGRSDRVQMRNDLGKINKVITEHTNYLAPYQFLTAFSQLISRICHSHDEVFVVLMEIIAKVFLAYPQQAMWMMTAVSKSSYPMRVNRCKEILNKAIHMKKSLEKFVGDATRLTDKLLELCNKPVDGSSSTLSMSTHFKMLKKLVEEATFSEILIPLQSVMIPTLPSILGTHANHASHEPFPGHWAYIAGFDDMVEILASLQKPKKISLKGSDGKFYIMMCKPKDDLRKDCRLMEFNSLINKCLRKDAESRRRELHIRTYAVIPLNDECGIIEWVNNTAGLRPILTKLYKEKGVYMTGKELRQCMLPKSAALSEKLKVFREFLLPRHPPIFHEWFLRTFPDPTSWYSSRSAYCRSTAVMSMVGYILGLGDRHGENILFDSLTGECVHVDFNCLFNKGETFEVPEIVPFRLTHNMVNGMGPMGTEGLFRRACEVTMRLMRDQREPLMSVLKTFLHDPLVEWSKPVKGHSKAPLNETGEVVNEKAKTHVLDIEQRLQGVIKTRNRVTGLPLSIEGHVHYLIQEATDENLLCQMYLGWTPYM

The mark [1] stands for this setting: Ki(app), 5 nM full-length ATR, 10 μM ATP, 25° C.

Like-named read-outs stand apart in the source and are kept apart here.

For `Cc1nc(C(=O)N2CCN(C)CC2)ccc1-c1ccncc1NC(=O)c1c(N)nn2cc(F)cnc12` [I-C-39, 2-amino-6-fluoro-N-(2-methyl-6-(4-methylpiperazine-1-carbonyl)-[3,4′-bipyridin]-3′-yl)pyrazolo[1,5-a]pyrimidine-3-carboxamide], the Ki under setting [1] fell in the range of 0.01 to 1 µM.

As to `Nc1nn2cc(F)cnc2c1C(=O)Nc1cnccc1-c1cccnc1F` [I-C-35, 2-amino-6-fluoro-N-(2-fluoro-[3,4′-bipyridin]-3′-yl)pyrazolo[1,5-a]pyrimidine-3-carboxamide], under setting [1], the Ki was in the range of 0.01 to 1 µM. On the same count and under the same terms, next, `CCN1CCN(C(=O)C2CCN(c3c(F)cncc3NC(=O)c3c(N)nn4cc(F)cnc34)CC2)CC1` [I-G-9, 2-amino-N-(4-(4-(4-ethylpiperazine-1-carbonyl)piperidin-1-yl)-5-fluoropyridin-3-yl)-6-fluoropyrazolo[1,5-a]pyrimidine-3-carboxamide]: 0.01 to 1 µM. `CN1CC[C@@H](OC2CCN(c3ccncc3NC(=O)c3c(N)nn4cc(F)cnc34)CC2)C1` [I-N-131]: the Ki lay within 0.01 to 1 µM. With `Nc1nn2cc(F)cnc2c1C(=O)Nc1cncc(F)c1N1CCC(S(=O)(=O)N2CCN3CCC2CC3)CC1` [I-N-273, N-(4-(4-(1,4-diazabicyclo[3.2.2]nonan-4-ylsulfonyl)piperidin-1-yl)-5-fluoropyridin-3-yl)-2-amino-6-fluoropyrazolo[1,5-a]pyrimidine-3-carboxamide], under setting [1], the Ki lay in the range of 0.01 to 1 µM. The same measure, in the same setting: then `N#CC1(C(=O)N2CCC(c3ccncc3NC(=O)c3c(N)nn4cc(F)cnc34)CC2)CC1` [I-C-71, 2-amino-N-(4-(1-(1-cyanocyclopropanecarbonyl)piperidin-4-yl)pyridin-3-yl)-6-fluoropyrazolo[1,5-a]pyrimidine-3-carboxamide], with 0.01 to 1 µM; and `COCCOc1ccncc1NC(=O)c1c(N)nn2cc(Cl)cnc12` [I-O-55, 2-amino-6-chloro-N-(4-(2-methoxyethoxy)pyridin-3-yl)pyrazolo[1,5-a]pyrimidine-3-carboxamide], with 0.01 to 1 µM.

On to `Nc1nn2cc(F)cnc2c1C(=O)Nc1cnccc1-c1ccc(C(=O)N2CCN(C3COC3)CC2)cc1F` [I-C-51, 2-amino-6-fluoro-N-(4-(2-fluoro-4-(4-(oxetan-3-yl)piperazine-1-carbonyl)phenyl)pyridin-3-yl)pyrazolo[1,5-a]pyrimidine-3-carboxamide], for which, under setting [1], the Ki was in the range of 0.01 to 1 µM.

On to `CN(C)CCN(C)C(=O)C1CCN(c2c(F)cncc2NC(=O)c2c(N)nn3cc(F)cnc23)CC1` [I-G-31, 2-amino-N-(4-(4-((2-(dimethylamino)ethyl)(methyl)carbamoyl)piperidin-1-yl)-5-fluoropyridin-3-yl)-6-fluoropyrazolo[1,5-a]pyrimidine-3-carboxamide], for which the Ki under setting [1] lay in the range of 0.01 to 1 µM. `Nc1nn2cc(F)cnc2c1C(=O)Nc1cncc(Cl)c1N1CCC(C(=O)N2CCNCC2)CC1` [I-G-48, 2-amino-N-(5-chloro-4-(4-(piperazine-1-carbonyl)piperidin-1-yl)pyridin-3-yl)-6-fluoropyrazolo[1,5-a]pyrimidine-3-carboxamide]: under setting [1], the Ki was 0.01 to 1 µM. For `CN(C)CCCOc1ccncc1NC(=O)c1c(N)nn2cc(Cl)cnc12` [I-O-52, 2-amino-6-chloro-N-(4-(3-(dimethylamino)propoxy)pyridin-3-yl)pyrazolo[1,5-a]pyrimidine-3-carboxamide], the Ki fell in the range of 1 to 5 µM. On to `CN1CCN(c2c(Cl)cncc2NC(=O)c2c(N)nn3cc(Cl)cnc23)CC1` [I-N-41, 2-amino-6-chloro-N-(5-chloro-4-(4-methylpiperazin-1-yl)pyridin-3-yl)pyrazolo[1,5-a]pyrimidine-3-carboxamide], for which the Ki under setting [1] was 0.01 to 1 µM. The same measure, in the same setting: then `CN1CC(N2CCN(C(=O)C3CCN(c4c(F)cncc4NC(=O)c4c(N)nn5cc(F)cnc45)CC3)CC2)C1` [I-G-96, 2-amino-6-fluoro-N-(5-fluoro-4-(4-(4-(1-methylazetidin-3-yl)piperazine-1-carbonyl)piperidin-1-yl)pyridin-3-yl)pyrazolo[1,5-a]pyrimidine-3-carboxamide], with 0.01 to 1 µM. The same measure, in the same setting: then `CCOc1ccncc1NC(=O)c1c(N)nn2cc(CC#N)cnc12` [I-O-28, 2-amino-6-(cyanomethyl)-N-(4-ethoxypyridin-3-yl)pyrazolo[1,5-a]pyrimidine-3-carboxamide], with less than 0.01 µM.

On to `Nc1nn2cc(F)cnc2c1C(=O)Nc1cncc(F)c1N1CCC(C(=O)N2CCC(N3CCCC3)CC2)CC1` [I-G-59, 2-amino-6-fluoro-N-(5-fluoro-4-(4-(4-(pyrrolidin-1-yl)piperidine-1-carbonyl)piperidin-1-yl)pyridin-3-yl)pyrazolo[1,5-a]pyrimidine-3-carboxamide], for which, under setting [1], the Ki lay within 0.01 to 1 µM. Turning to `Nc1nn2cc(F)cnc2c1C(=O)Nc1cncc(F)c1N1CCN(C(=O)C2COC2)CC1` [I-N-278, 2-amino-6-fluoro-N-(5-fluoro-4-(4-(oxetane-3-carbonyl)piperazin-1-yl)pyridin-3-yl)pyrazolo[1,5-a]pyrimidine-3-carboxamide], the Ki under setting [1] was in the range of 0.01 to 1 µM.

In the case of `CN1CCC(c2ccncc2NC(=O)c2c(N)nn3cc(F)cnc23)CC1` [I-C-1, 2-amino-6-fluoro-N-(4-(1-methylpiperidin-4-yl)pyridin-3-yl)pyrazolo[1,5-a]pyrimidine-3-carboxamide], the Ki lay within 1 to 5 µM. Still for that read-out and setting: next, `CN(C)CC1(O)CCN(c2ccncc2NC(=O)c2c(N)nn3cc(Cl)cnc23)CC1` [I-N-36, 2-amino-6-chloro-N-(4-(4-((dimethylamino)methyl)-4-hydroxypiperidin-1-yl)pyridin-3-yl)pyrazolo[1,5-a]pyrimidine-3-carboxamide]: 1 to 5 µM.

For `CN1CCN(c2cc(N)ncc2NC(=O)c2c(N)nn3cc(Cl)cnc23)CC1` [I-N-50, 2-amino-N-(6-amino-4-(4-methylpiperazin-1-yl)pyridin-3-yl)-6-chloropyrazolo[1,5-a]pyrimidine-3-carboxamide], the Ki under setting [1] fell in the range of 0.01 to 1 µM. The same measure, in the same setting: next, `Nc1nn2cc(F)cnc2c1C(=O)Nc1cnccc1N1CCN(CC(F)(F)F)CC1` [I-N-20, 2-amino-6-fluoro-N-(4-(4-(2,2,2-trifluoroethyl)piperazin-1-yl)pyridin-3-yl)pyrazolo[1,5-a]pyrimidine-3-carboxamide]: 0.01 to 1 µM; `CS(=O)(=O)N1CCN(c2ccncc2NC(=O)c2c(N)nn3cc(F)cnc23)CC1` [I-N-178, 2-amino-6-fluoro-N-(4-(4-(methylsulfonyl)piperazin-1-yl)pyridin-3-yl)pyrazolo[1,5-a]pyrimidine-3-carboxamide]: 0.01 to 1 µM. On to `Nc1nn2cc(F)cnc2c1C(=O)Nc1cnccc1N1CCC(C(=O)N2CC(F)C2)CC1` [I-G-82, 2-amino-6-fluoro-N-(4-(4-(3-fluoroazetidine-1-carbonyl)piperidin-1-yl)pyridin-3-yl)pyrazolo[1,5-a]pyrimidine-3-carboxamide], for which, under setting [1], the Ki lay in the range of 0.01 to 1 µM. On to `Nc1nn2cc(F)cnc2c1C(=O)Nc1cnccc1N1CCN(S(=O)(=O)C2CCOCC2)CC1` [I-N-177, 2-amino-6-fluoro-N-(4-(4-((tetrahydro-2H-pyran-4-yl)sulfonyl)piperazin-1-yl)pyridin-3-yl)pyrazolo[1,5-a]pyrimidine-3-carboxamide], for which the Ki under setting [1] lay within 0.01 to 1 µM. On the same count and under the same terms, next, `CN1CCC(NC(=O)C2CCN(c3c(F)cncc3NC(=O)c3c(N)nn4cc(F)cnc34)CC2)CC1` [I-G-20, 2-amino-6-fluoro-N-(5-fluoro-4-(4-((1-methylpiperidin-4-yl)carbamoyl)piperidin-1-yl)pyridin-3-yl)pyrazolo[1,5-a]pyrimidine-3-carboxamide]: 0.01 to 1 µM; `Nc1nn2cc(F)cnc2c1C(=O)Nc1cncc(Cl)c1N1CCN(C2CCOC2)CC1` (centres unmarked) [I-N-124, 2-amino-N-(5-chloro-4-(4-(tetrahydrofuran-3-yl)piperazin-1-yl)pyridin-3-yl)-6-fluoropyrazolo[1,5-a]pyrimidine-3-carboxamide]: 0.01 to 1 µM. On to `Cn1c(-c2ccncc2NC(=O)c2c(N)nn3cc(F)cnc23)cccc1=O` [I-C-58, 2-amino-6-fluoro-N-(1-methyl-6-oxo-1,6-dihydro-[2,4′-bipyridin]-3′-yl)pyrazolo[1,5-a]pyrimidine-3-carboxamide], for which the Ki under setting [1] is 0.01 to 1 µM. On to `Nc1nn2cc(F)cnc2c1C(=O)Nc1cncc(F)c1N1CCN(C(=O)C2CC2)CC1` [I-N-276, 2-amino-N-(4-(4-(cyclopropanecarbonyl)piperazin-1-yl)-5-fluoropyridin-3-yl)-6-fluoropyrazolo[1,5-a]pyrimidine-3-carboxamide], for which, under setting [1], the Ki lay in the range of 0.01 to 1 µM. The same measure, in the same setting: then `Cc1nc(N2CCN(C)CC2)ccc1-c1ccncc1NC(=O)c1c(N)nn2cc(F)cnc12` [I-C-40, 2-amino-6-fluoro-N-(2-methyl-6-(4-methylpiperazin-1-yl)-[3,4′-bipyridin]-3′-yl)pyrazolo[1,5-a]pyrimidine-3-carboxamide], with 0.01 to 1 µM; and `CC1(N2CCN(c3ccncc3NC(=O)c3c(N)nn4cc(F)cnc34)CC2)COC1` [I-N-62, 2-amino-6-fluoro-N-(4-(4-(3-methyloxetan-3-yl)piperazin-1-yl)pyridin-3-yl)pyrazolo[1,5-a]pyrimidine-3-carboxamide], with 0.01 to 1 µM. On the same count and under the same terms, next, `CN1CCN(C(=O)C2CCN(c3c(F)cncc3NC(=O)c3c(N)nn4cc(Cl)cnc34)CC2)CC1` [I-G-5, 2-amino-6-chloro-N-(5-fluoro-4-(4-(4-methylpiperazine-1-carbonyl)piperidin-1-yl)pyridin-3-yl)pyrazolo[1,5-a]pyrimidine-3-carboxamide]: 0.01 to 1 µM; `CN1CCN2CCN(c3ccncc3NC(=O)c3c(N)nn4cc(Cl)cnc34)CC2C1` (centres unmarked) [I-N-61, 2-amino-6-chloro-N-(4-(8-methylhexahydro-1H-pyrazino[1,2-a]pyrazin-2(6H)-yl)pyridin-3-yl)pyrazolo[1,5-a]pyrimidine-3-carboxamide]: 0.01 to 1 µM. As for `CN1CC[C@@H](Oc2ccncc2NC(=O)c2c(N)nn3cc(Cl)cnc23)C1` [I-O-63, (R)-2-amino-6-chloro-N-(4-((1-methylpyrrolidin-3-yl)oxy)pyridin-3-yl)pyrazolo[1,5-a]pyrimidine-3-carboxamide], the Ki under setting [1] lay in the range of 0.01 to 1 µM.

Source of the values: patent US10392391B2 (Vertex Pharmaceuticals Incorporated, priority 2012, dated 2019).
